Experimental data published in patent US10383847B2 (priority 2012, dated 2019).
Where two headings read alike, the source gives them in different places.

Tests used:
ERBB3 = biological target: T1, ERBB3 (Homo sapiens, UniProt P21860); experiment: competition binding kinase scan; conditions: FIGS. 4 and 6
T1 construct: DNA tag / T7 phage fusion; made in house; host or cells: T7 phage in E. coli (BL21-derived) or HEK-293
Experimental: (§1) The scanning procedure is based on a competition binding assay that quantitatively measures the ability of a compound to compete with an immobilized, active-site directed ligand. The assay is performed by combining three components: DNA-tagged kinase; immobilized ligand; and a test compound. The ability of the test compound to compete with the immobilized ligand is measured via quantitative PCR of the DNA tag. This procedure is described in T. A. Carter et al., “Inhibition of Drug-Resistant Mutants of ABL, KIT, and EGF Receptor Kinases,” Proc. Natl. Acad. Sci. USA 102: 11011-11016 (2005), incorporated herein by this reference.
(§2) Kinase assays were carried out as follows: For most assays, kinase-tagged T7 phage strains were grown in parallel in 24-well blocks in an Escherichia coli host derived from the BL21 strain. E. coli were grown to log-phase and infected with T7 phage from a frozen stock (multiplicity of infection=0.4) and incubated with shaking at 32° C. until lysis (90-150 minutes). The lysates were centrifuged (6,000×g) and filtered (0.2 μm) to remove cell debris. The remaining kinases were produced in HEK-293 cells and subsequently tagged with DNA for qPCR detection. Streptavidin-coated magnetic beads were treated with biotinylated small molecule ligands for 30 minutes at room temperature to generate affinity resins for kinase assays. The liganded beads were blocked with excess biotin and washed with blocking buffer (SeaBlock (Pierce), 1% BSA, 0.05% Tween 20, 1 mM DTT) to remove unbound ligand and to reduce nonspecific phage binding. Binding reactions were assembled by combining kinases, liganded affinity beads, and test compounds in 1× binding buffer (20% SeaBlock, 0.17×PBS, 0.05% Tween 20, 6 mM DTT). Test compounds were prepared as 40×stocks in 100% DMSO and directly diluted into the assay. All reactions were performed in polypropylene 384-well plates in a final volume of 0.04 mL. The assay plates were incubated at room temperature with shaking for 1 hour and the affinity beads were washed with wash buffer (1×PBS, 0.05% Tween 20). The beads were then re-suspended in elution buffer (1×PBS, 0.05% Tween 20, 0.5 μM non-biotinylated affinity ligand) and incubated at room temperature with shaking for 30 minutes. The kinase concentration in the eluates was measured by qPCR.
(§3) The compounds were screened at the requested concentrations, and results for primary screen binding interactions were reported as “% Ctrl,” where lower numbers indicate stronger hits (i.e., an increased degree of inhibition of kinase activity) as follows (Equation (1)): […]

NEK9 = biological target: T2, NEK9 (Homo sapiens, UniProt Q8TD19); experiment: competition binding kinase scan
T2 construct: DNA tag / T7 phage fusion; made in house; host or cells: T7 phage in E. coli (BL21-derived) or HEK-293
Experimental: as §1, §2, §3

STK25 = biological target: T3, STK25 (Homo sapiens, UniProt O00506); experiment: competition binding kinase scan; conditions: FIGS. 4 and 6
T3 construct: DNA tag / T7 phage fusion; made in house; host or cells: T7 phage in E. coli (BL21-derived) or HEK-293
Experimental: as §1, §2, §3

[1] = system: malignant cell lines, particularly AML cell lines (MV 4-11, myeloid cell lines); experiment: viability of cancer cell lines after meisoindigo treatment; assay type: cell-based; conditions: 0.1-100 μM, 24 and 48 hours
Experimental: Viability at 48 hours is shown by (♦); viability at 24 hours is shown by (▪).

NB4 = conditions: AML; cited from earlier work
HL-60 = conditions: AML; cited from earlier work
U937 = conditions: AML; cited from earlier work
K562 = conditions: CML; cited from earlier work
HT29 = conditions: colorectal cancer; cited from earlier work
HUVEC [2] = conditions: cited from earlier work
ECV304 [3] = conditions: cited from earlier work
primary AML = conditions: cited from earlier work
cytochrome P450 1A2 [4] = biological target: T4, cytochrome P450 1A2 (Homo sapiens, UniProt P05177); conditions: by oxidation; cited from earlier work
cytochrome P450 2C19 = cytochrome P450 2C19 (Homo sapiens, UniProt P33261); conditions: by oxidation; cited from earlier work
[5] = system: uridine glucuronyltransferases (UGT); conditions: direct conjugation without initial cytochrome P450 oxidation, more polar metabolites; cited from earlier work
cytochrome P450 1A2 [6] = biological target: T4, cytochrome P450 1A2; conditions: cited from earlier work
cytochrome P450 2C8 = cytochrome P450 2C8 (Homo sapiens, UniProt P10632); conditions: cited from earlier work
AML NOD/SCID model = conditions: in vivo; cited from earlier work
[7] = system: HT-29 colorectal xenografts; conditions: in vivo; cited from earlier work
Lewis lung sarcoma = conditions: in vivo; cited from earlier work
[8] = system: Walker 256 carcino-sarcoma; conditions: in vivo; cited from earlier work
murine cancer models = conditions: mouse, in vivo; cited from earlier work
AML cell lines = conditions: cited from earlier work
[9] = system: HT-29 colorectal cell lines; conditions: cited from earlier work
primary AML cells = conditions: cited from earlier work
AML cells = conditions: DKO insensitive to chemotherapy; cited from earlier work
K562 cells = conditions: cited from earlier work
HL-60 myeloid cells = conditions: cited from earlier work
[10] = system: human myeloblastic leukemic cells; conditions: cited from earlier work
W256 cells = conditions: cited from earlier work
[11] = biological target: glycogen synthase kinase-3β (GSK-3β) (Homo sapiens, UniProt P49841); conditions: cited from earlier work
HL-60 cells = conditions: cited from earlier work
Jurkat cells = conditions: inducing phosphorylation of c-Myb; cited from earlier work
HUVEC [12] = conditions: cited from earlier work; remark: listed apart in the source
ECV304 [13] = conditions: cited from earlier work; remark: listed apart in the source
VEGF = conditions: cited from earlier work
VCAM-1 = conditions: cited from earlier work
[14] = system: hepatic cytochrome P450 (CYP); conditions: hepatic CYP-mediated; cited from earlier work
rats = conditions: up to 400 mg/kg/d p.o. for 30 days; cited from earlier work
dogs = conditions: 10 mg/kg/d p.o. for 6 months; cited from earlier work
[15] = Ames; cited from earlier work
[16] = Chromabs; cited from earlier work
patients = conditions: cited from earlier work
[17] = system: chronic myelogenous leukemia (CML) patients; conditions: cited from earlier work

T4 sequence (P05177 whole entry, species assumed): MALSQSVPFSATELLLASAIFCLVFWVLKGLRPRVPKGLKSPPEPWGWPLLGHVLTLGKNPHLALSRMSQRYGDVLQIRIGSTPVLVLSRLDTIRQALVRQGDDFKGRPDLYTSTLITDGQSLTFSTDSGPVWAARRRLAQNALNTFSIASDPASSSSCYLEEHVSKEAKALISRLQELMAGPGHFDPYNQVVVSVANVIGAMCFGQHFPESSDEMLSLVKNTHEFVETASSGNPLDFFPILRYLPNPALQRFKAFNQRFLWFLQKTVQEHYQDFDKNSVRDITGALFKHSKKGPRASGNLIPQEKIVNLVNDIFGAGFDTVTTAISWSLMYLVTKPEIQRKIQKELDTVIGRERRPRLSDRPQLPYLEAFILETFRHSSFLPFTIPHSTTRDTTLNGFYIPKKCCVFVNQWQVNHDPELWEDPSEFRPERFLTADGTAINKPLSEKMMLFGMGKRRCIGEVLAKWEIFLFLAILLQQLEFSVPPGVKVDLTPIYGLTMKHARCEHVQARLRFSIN
T2 sequence (Q8TD19 whole entry, the tested form may be a part): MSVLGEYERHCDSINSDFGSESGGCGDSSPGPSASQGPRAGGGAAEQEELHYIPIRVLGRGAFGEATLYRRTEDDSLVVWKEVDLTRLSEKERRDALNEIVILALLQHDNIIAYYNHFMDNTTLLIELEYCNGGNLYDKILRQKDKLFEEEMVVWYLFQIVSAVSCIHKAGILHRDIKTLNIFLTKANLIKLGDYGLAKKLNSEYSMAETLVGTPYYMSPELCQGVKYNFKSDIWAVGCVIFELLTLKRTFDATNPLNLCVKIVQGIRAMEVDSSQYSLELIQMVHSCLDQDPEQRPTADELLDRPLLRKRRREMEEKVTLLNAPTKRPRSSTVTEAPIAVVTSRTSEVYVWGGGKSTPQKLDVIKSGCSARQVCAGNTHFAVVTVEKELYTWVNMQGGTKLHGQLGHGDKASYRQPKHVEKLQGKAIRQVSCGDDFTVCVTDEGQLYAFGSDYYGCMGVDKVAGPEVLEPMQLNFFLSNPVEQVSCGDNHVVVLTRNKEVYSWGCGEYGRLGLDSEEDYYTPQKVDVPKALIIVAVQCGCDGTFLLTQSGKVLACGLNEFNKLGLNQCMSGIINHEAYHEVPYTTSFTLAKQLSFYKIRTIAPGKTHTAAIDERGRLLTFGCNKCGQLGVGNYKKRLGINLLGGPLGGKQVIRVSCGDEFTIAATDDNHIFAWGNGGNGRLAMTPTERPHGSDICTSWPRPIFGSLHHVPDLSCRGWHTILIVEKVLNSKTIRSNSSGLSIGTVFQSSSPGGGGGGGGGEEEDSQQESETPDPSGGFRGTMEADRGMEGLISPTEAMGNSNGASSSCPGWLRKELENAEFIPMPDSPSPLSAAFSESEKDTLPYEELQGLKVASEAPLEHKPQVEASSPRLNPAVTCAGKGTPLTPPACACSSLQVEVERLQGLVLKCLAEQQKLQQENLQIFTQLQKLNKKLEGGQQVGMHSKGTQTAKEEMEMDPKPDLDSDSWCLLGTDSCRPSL
cytochrome P450 2C8, sequence (P10632 whole entry): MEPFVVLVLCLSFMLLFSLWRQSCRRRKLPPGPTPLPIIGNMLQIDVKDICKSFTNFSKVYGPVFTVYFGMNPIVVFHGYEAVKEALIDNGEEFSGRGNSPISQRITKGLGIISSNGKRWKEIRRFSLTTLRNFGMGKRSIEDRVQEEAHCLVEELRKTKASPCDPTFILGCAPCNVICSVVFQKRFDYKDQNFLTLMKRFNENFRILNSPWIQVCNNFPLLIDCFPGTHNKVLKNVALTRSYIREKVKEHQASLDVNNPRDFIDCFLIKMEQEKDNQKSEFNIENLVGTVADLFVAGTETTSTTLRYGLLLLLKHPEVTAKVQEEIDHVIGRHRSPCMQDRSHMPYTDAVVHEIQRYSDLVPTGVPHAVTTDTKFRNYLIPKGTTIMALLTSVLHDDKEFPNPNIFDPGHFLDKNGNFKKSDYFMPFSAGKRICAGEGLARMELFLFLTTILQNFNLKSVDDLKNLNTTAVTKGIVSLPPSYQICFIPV
cytochrome P450 2C19, sequence (P33261 whole entry): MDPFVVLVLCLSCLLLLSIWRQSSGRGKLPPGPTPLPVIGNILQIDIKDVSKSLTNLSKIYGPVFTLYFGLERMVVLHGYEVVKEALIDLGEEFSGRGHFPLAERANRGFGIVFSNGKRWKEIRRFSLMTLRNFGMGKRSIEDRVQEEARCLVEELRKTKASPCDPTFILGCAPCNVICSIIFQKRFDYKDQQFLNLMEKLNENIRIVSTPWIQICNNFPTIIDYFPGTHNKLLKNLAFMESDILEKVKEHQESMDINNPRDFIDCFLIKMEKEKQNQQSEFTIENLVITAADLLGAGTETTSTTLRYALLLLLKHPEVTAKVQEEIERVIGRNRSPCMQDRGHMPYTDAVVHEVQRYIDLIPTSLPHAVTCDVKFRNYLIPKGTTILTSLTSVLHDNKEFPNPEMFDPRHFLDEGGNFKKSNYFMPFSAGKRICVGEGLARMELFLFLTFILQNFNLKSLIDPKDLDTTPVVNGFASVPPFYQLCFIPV
glycogen synthase kinase-3β (GSK-3β), sequence (P49841 whole entry, species assumed): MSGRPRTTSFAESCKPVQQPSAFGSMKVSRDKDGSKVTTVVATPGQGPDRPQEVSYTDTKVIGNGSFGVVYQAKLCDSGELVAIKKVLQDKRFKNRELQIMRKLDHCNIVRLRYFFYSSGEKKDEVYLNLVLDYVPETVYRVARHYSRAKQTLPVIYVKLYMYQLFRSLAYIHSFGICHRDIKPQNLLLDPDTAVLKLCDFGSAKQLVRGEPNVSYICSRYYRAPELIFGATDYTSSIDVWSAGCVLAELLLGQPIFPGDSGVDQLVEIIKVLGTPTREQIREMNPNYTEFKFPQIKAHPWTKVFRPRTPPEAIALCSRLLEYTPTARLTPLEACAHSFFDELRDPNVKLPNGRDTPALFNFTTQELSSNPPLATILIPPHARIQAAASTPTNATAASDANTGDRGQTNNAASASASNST
T1 sequence (P21860 20-1342): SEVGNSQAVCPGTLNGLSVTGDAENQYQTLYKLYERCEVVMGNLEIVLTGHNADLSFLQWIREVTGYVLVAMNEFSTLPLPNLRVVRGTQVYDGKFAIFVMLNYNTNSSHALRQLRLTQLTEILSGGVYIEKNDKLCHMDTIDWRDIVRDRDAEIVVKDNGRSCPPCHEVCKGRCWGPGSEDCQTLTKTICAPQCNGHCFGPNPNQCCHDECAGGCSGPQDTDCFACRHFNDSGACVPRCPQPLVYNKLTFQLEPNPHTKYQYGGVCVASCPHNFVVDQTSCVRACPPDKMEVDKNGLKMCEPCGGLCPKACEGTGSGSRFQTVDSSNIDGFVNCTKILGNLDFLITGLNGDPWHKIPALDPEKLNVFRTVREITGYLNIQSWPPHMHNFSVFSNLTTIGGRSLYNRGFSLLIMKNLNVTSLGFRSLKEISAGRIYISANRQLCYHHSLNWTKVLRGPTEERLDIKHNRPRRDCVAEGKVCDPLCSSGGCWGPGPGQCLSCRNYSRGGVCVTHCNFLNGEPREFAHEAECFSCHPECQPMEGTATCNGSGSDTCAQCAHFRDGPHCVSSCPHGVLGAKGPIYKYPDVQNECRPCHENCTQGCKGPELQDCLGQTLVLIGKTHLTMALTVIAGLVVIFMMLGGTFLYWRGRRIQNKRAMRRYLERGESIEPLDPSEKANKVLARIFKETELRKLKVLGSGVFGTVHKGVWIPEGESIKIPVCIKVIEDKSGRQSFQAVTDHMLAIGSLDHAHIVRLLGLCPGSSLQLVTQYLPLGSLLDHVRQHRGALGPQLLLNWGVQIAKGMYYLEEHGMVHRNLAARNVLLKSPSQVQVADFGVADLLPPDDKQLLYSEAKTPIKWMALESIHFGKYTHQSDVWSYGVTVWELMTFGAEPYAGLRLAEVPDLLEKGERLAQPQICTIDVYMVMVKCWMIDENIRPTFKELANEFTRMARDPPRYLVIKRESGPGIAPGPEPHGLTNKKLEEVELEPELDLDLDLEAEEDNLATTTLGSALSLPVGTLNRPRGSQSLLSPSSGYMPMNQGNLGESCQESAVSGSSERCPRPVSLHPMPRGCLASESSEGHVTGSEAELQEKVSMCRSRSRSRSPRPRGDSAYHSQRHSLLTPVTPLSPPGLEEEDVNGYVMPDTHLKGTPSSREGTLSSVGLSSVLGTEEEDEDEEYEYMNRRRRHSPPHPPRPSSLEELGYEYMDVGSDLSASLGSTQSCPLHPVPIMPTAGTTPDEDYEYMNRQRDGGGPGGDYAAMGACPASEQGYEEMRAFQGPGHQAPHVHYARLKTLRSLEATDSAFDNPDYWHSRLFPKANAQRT
T3 sequence (O00506 whole entry, the tested form may be a part): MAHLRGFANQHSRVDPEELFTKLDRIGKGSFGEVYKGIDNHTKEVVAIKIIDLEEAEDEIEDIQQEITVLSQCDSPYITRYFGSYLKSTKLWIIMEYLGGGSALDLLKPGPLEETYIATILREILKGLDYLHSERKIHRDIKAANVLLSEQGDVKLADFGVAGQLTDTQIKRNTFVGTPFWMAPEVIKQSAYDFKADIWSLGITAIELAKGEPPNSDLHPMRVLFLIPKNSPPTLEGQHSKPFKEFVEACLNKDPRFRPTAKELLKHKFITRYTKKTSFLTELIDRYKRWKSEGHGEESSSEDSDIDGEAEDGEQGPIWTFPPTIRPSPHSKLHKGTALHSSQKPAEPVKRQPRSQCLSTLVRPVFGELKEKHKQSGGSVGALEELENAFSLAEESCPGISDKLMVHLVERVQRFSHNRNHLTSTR

With CN1C(=O)/C(=C2/C(=O)Nc3ccccc32)c2ccccc21 [Meisoindigo, 3-(1,2-dihydro-2-oxo-3H-indol-3-ylidene)-1,3-dihydro-1-methyl-2H-indol-2-one] the binding to kinase (ERBB3) was “significant binding”, the “kinase inhibition in screen” value (NEK9; FIG. 6) was “significant inhibition” and the binding to kinase (NEK9; FIGS. 4 and 6) was “strongest binding”. For the same compound, the binding to kinase (STK25) was “significant binding”, the “killing of malignant cell lines (viability)” value [1] was “effective in killing” and the activity against cells (NB4) was “activity”. The activity against cells (HL-60) was “activity”, the activity against cells (U937) was “activity” and the activity against cells (K562) was “activity”. For the same compound, the activity against cells (HT29) was “activity”, the activity against cells (HUVEC [2]) was “activity” and the activity against cells (ECV304 [3]) was “activity”. The activity against cells (primary AML) was “activity”, the metabolism by enzyme (cytochrome P450 1A2 [4]) was “metabolized” and the metabolism by enzyme (cytochrome P450 2C19) was “metabolized”. The metabolism by enzyme [5] was “metabolized”, the “inhibition of enzyme, concentration” value (cytochrome P450 1A2 [6]) was “low micromolar concentrations” and the “inhibition of enzyme, concentration” value (cytochrome P450 2C8) was “low micromolar concentrations”. The spleen size (AML NOD/SCID model) was “dose-dependent spleen size reduction”, the efficacy in model [7] was “effective” and the efficacy in model (Lewis lung sarcoma) was “effective”. The efficacy in model [8] was “effective”, the efficacy in model (murine cancer models) was “effective” and the “cell cycle specific effect” value (AML cell lines) was “arrest in G(O)/G1”. For the same compound, the “cell cycle specific effect” value [9] was “G2/M arrest”, the Bcl-2 (primary AML cells) was “downregulation” and the p21 (primary AML cells) was “upregulation”. For the same compound, the p27 (primary AML cells) was “upregulation”, the Bak (AML cells) was “upregulation” and the Bax (AML cells) was “upregulation”. The mechanism of apoptosis (K562 cells) was “novel caspase-dependent pathway”, the “cleavage of pro-caspase 3, 8, 9 and PARP” value (HL-60 myeloid cells) was “stimulates the cleavage” and the c-myb gene expression [10] was “downregulation”. The differentiation [10] was “promotes differentiation”, the “DNA and RNA synthesis” value (W256 cells) was “inhibition” and the “concentration at which GSK-3β is inhibited” value [11] was 5 to 50 nM. The c-myc (HL-60 cells) was “decreases”, the β-catenin (HL-60 cells) was “decreases” and the Ahi-1 (Jurkat cells) was “upregulation”. The tubule formulation (HUVEC [12]) was “decreased”, the apoptosis (ECV304 [13]) was “apoptosis” and the VEGF protection (VEGF) was “decreased”. The VCAM-1 (VCAM-1) was “decreased”, the metabolic routes [14] was “N-demethylation and mono ring hydroxylation” and the tolerability (rats) was “well tolerated”. For the same compound, the tolerability (dogs) was “well tolerated”, the genotoxicity [15] was “not genotoxic” and the genotoxicity [16] was “not genotoxic”. The “cardiac, hepatic, or renal adverse effects” value (patients; patients) was “no cardiac, hepatic, or renal adverse effects”, the “mild nausea and vomiting” value (patients; patients, spontaneously disappeared in two weeks) was 30% and the tolerability (patients; several patient populations, single agent or in combination with chemotherapy) was “well tolerated”. The “complete hematologic response, patients” value ([17]; 50-200 mg/d p.o.) was 33%, the “partial hematologic response, patients” value ([17]; 50-200 mg/d p.o.) was 58% and the “reduction of leukocyte count, median” value ([17]; 50-200 mg/d p.o.) was 31 days. The “reduction of splenomegaly, median” value ([17]; 50-200 mg/d p.o.) was 25 days and the “effect of combination with hydroxyurea” value ([17]; with hydroxyurea) was “synergistic effect”.
